According to US20210045385A1, “PYRIDAZINONE-SUBSTITUTED KETOXIMES AS HERBICIDES” (FMC Corporation, priority 2018, published 2021):

Columns and labels:
Format in all cases: in vivo
[1] = tested on: pigweed (Amaranthus retroflexus); experiment: Test C preemergence, visual plant response rating; conditions: Test C, 0 is no effect, 100 is complete control
Outline: (§1)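 Compounds in a non-phytotoxic solvent with surfactant were applied as a directed soil spray preemergence or to 2–10 cm, one- to two-leaf plants postemergence, in loam–sand soil. After about 10 d in a greenhouse, injury was visually rated against untreated controls on a 0–100 scale (100 = complete control).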

[2] = tested on: Italian ryegrass (Lolium mutiflorum); experiment: Test C preemergence, visual plant response rating; conditions: Test C, 0 is no effect, 100 is complete control
Outline: as §1

kochia (Bassia scoparia) [3] = experiment: Test C preemergence, visual plant response rating; conditions: Test C, 0 is no effect, 100 is complete control
Outline: as §1

[4] = tested on: foxtail, giant (giant foxtail, Setaria faberi); experiment: Test C preemergence, visual plant response rating; conditions: Test C, 0 is no effect, 100 is complete control
Outline: as §1

[5] = tested on: ragweed (common ragweed, Ambrosia artemisiifolia); experiment: Test C preemergence, visual plant response rating; conditions: Test C, 0 is no effect, 100 is complete control
Outline: as §1

[6] = tested on: barnyardgrass (Echinochloa crus-galli); experiment: Test C preemergence, visual plant response rating; conditions: Test C, 0 is no effect, 100 is complete control
Outline: as §1

[7] = tested on: duck salad (Heteranthera limosa); experiment: Test D flooded paddy test, visual plant response rating; conditions: 250 g ai/ha, scale 0 to 100 (0 no effect, 100 complete control), 13 to 15 d
Outline: (§2)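 2-leaf plants, flooded 3 cm, cpd into paddy water; greenhouse 13–15 d; visual rating vs controls, 0 = no effect, 100 = complete control; dash = no result.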

rice (Oryza sativa) = experiment: as above; conditions: 250 g ai/ha, scale 0 to 100 (0 no effect, 100 complete control), 13 to 15 d
Outline: as §2

[8] = tested on: barnyardgrass (Echinochloa crus-galli); experiment: as above; conditions: 250 g ai/ha, scale 0 to 100 (0 no effect, 100 complete control), 13 to 15 d
Outline: as §2

[9] = tested on: sedge umbrella (small-flower umbrella sedge, Cyperus difformis); experiment: as above; conditions: 250 g ai/ha, scale 0 to 100 (0 no effect, 100 complete control), 13 to 15 d
Outline: as §2

[10] = tested on: pigweed (Amaranthus retroflexus); experiment: Test C postemergence, visual plant response rating
Outline: as §1

[11] = tested on: Italian ryegrass (Lolium mutiflorum); experiment: Test C postemergence, visual plant response rating
Outline: as §1

kochia (Bassia scoparia) [12] = experiment: Test C postemergence, visual plant response rating
Outline: as §1

corn (Zea mays) = experiment: Test C postemergence, visual plant response rating
Outline: as §1

[13] = tested on: foxtail, giant (giant foxtail, Setaria faberi); experiment: Test C postemergence, visual plant response rating
Outline: as §1

[14] = tested on: wheat (Triticum aestivum); experiment: Test C postemergence, visual plant response rating
Outline: as §1

[15] = tested on: ragweed (common ragweed, Ambrosia artemisiifolia); experiment: Test C postemergence, visual plant response rating
Outline: as §1

[16] = tested on: barnyardgrass (Echinochloa crus-galli); experiment: Test C postemergence, visual plant response rating
Outline: as §1

[17] = tested on: blackgrass (Alopecurus myosuroides); experiment: Test C postemergence, visual plant response rating
Outline: as §1

[18] = tested on: galium (catchweed bedstraw, Galium aparine); experiment: Test C postemergence, visual plant response rating
Outline: as §1

[19] = Test C, postemergence, 125 g ai/ha

Row | Structure (SMILES) | Pigweed plant response rating (0 to 100 scale) ([1]; 31 g ai/ha) | Pigweed plant response rating (0 to 100 scale) ([1]; 125 g ai/ha) | Ryegrass, Italian plant response rating (0 to 100 scale) ([2]; 31 g ai/ha) | Ryegrass, Italian plant response rating (0 to 100 scale) ([2]; 125 g ai/ha) | Kochia plant response rating (0 to 100 scale) (kochia (Bassia scoparia) [3]; 31 g ai/ha) | Kochia plant response rating (0 to 100 scale) (kochia (Bassia scoparia) [3]; 125 g ai/ha) | Foxtail, Giant plant response rating (0 to 100 scale) ([4]; 31 g ai/ha) | Foxtail, Giant plant response rating (0 to 100 scale) ([4]; 125 g ai/ha) | Ragweed plant response rating (0 to 100 scale) ([5]; 31 g ai/ha) | Ragweed plant response rating (0 to 100 scale) ([5]; 125 g ai/ha) | Barnyardgrass plant response rating (0 to 100 scale) ([6]; 31 g ai/ha) | Barnyardgrass plant response rating (0 to 100 scale) ([6]; 125 g ai/ha) | Plant response rating, Ducksalad (Flood) [7] | Plant response rating, Rice (Flood) (rice (Oryza sativa)) | Plant response rating, Barnyardgrass (Flood) [8] | Plant response rating, Sedge, Umbrella (Flood) [9] | Pigweed plant response rating (0 to 100 scale) ([10]; Postemergence, 31 g ai/ha) | Pigweed plant response rating (0 to 100 scale) [10, 19] | Ryegrass, Italian plant response rating (0 to 100 scale) ([11]; Postemergence, 31 g ai/ha) | Ryegrass, Italian plant response rating (0 to 100 scale) [11, 19] | other results
1 | C#CCON=C(c1cccc(OC(F)F)c1)c1c(O)c(C)nn(C)c1=O [Compound 201] | 0 | 0 | 10 | 80 | 0 | 0 | 10 | 30 | 0 | 20 | 0 | 10 | 0 | 0 | 0 | 0 | 20 | 70 | 30 | 60 | Kochia plant response rating (0 to 100 scale) (kochia (Bassia scoparia) [12]; Postemergence, 31 g ai/ha): 40; Kochia plant response rating (0 to 100 scale) (kochia (Bassia scoparia) [12]; [19]): 70; Corn plant response rating (0 to 100 scale) (corn (Zea mays); Postemergence, 31 g ai/ha): 0; Corn plant response rating (0 to 100 scale) (corn (Zea mays); [19]): 0; Foxtail, Giant plant response rating (0 to 100 scale) ([13]; Postemergence, 31 g ai/ha): 20; Foxtail, Giant plant response rating (0 to 100 scale) [13, 19]: 40; Wheat plant response rating (0 to 100 scale) ([14]; Postemergence, 31 g ai/ha): 0; Wheat plant response rating (0 to 100 scale) [14, 19]: 40; Ragweed plant response rating (0 to 100 scale) ([15]; Postemergence, 31 g ai/ha): 10; Ragweed plant response rating (0 to 100 scale) [15, 19]: 30; Barnyardgrass plant response rating (0 to 100 scale) ([16]; Postemergence, 31 g ai/ha): 10; Barnyardgrass plant response rating (0 to 100 scale) [16, 19]: 40; Blackgrass plant response rating (0 to 100 scale) ([17]; Postemergence, 31 g ai/ha): 10; Blackgrass plant response rating (0 to 100 scale) [17, 19]: 50; Galium plant response rating (0 to 100 scale) ([18]; Postemergence, 31 g ai/ha): 50; Galium plant response rating (0 to 100 scale) [18, 19]: 80
2 | CON=C(c1cccc(OC(F)F)c1)c1c(O)c(C)nn(C)c1=O [Compound 202] | 0 | 0 | 0 | 10 | 0 | 0 | 0 | 0 | 0 | 10 | 0 | 0 | 0 | 0 | 0 | 0 | 20 | 60 | 10 | 30 | Kochia plant response rating (0 to 100 scale) (kochia (Bassia scoparia) [12]; Postemergence, 31 g ai/ha): 10; Kochia plant response rating (0 to 100 scale) (kochia (Bassia scoparia) [12]; [19]): 40; Corn plant response rating (0 to 100 scale) (corn (Zea mays); Postemergence, 31 g ai/ha): 0; Corn plant response rating (0 to 100 scale) (corn (Zea mays); [19]): 0; Foxtail, Giant plant response rating (0 to 100 scale) ([13]; Postemergence, 31 g ai/ha): 0; Foxtail, Giant plant response rating (0 to 100 scale) [13, 19]: 0; Wheat plant response rating (0 to 100 scale) ([14]; Postemergence, 31 g ai/ha): 0; Wheat plant response rating (0 to 100 scale) [14, 19]: 0; Ragweed plant response rating (0 to 100 scale) ([15]; Postemergence, 31 g ai/ha): 0; Ragweed plant response rating (0 to 100 scale) [15, 19]: 20; Barnyardgrass plant response rating (0 to 100 scale) ([16]; Postemergence, 31 g ai/ha): 0; Barnyardgrass plant response rating (0 to 100 scale) [16, 19]: 10; Blackgrass plant response rating (0 to 100 scale) ([17]; Postemergence, 31 g ai/ha): 0; Blackgrass plant response rating (0 to 100 scale) [17, 19]: 0; Galium plant response rating (0 to 100 scale) ([18]; Postemergence, 31 g ai/ha): 40; Galium plant response rating (0 to 100 scale) [18, 19]: 70
